Laboratory results from PubChem BioAssay AID274 (DTP/NCI, 2004).
Values joined by “and” are separate entries in the source; they are usually repeats but may differ in a detail not shown here. Equal entries are not always repeated. Toxic doses and inconclusive results are not listed. Rule for the calls: active = survival T/C of 150% or more; inactive = T/C below 125% in these data.

Tested on: BDF1 mice, Lewis lung carcinoma iv, survival T/C
Assay: NCI In Vivo Anticancer Drug Screen. Data for tumor model Lewis Lung Carcinoma (intravenous) in B6D2F1 (BDF1) mice
Conditions: endpoint: median survival time, higher = longer survival
Experimental: The antitumor activity of compounds was measured in mice bearing transplantable tumors. Survival or tumor size were measured and the results are expressed as the measurement made in the treated group (T) divided by the measurement made in the vehicle treated control group (C). The tumor model used in this assay is Lewis Lung Carcinoma (intravenous) in B6D2F1 (BDF1) mice

[1] = dose: 12.5 mg/kg/injection, schedule: Q01DX009 (ip), vehicle: saline
[2] = dose: 25.0 mg/kg/injection, schedule: Q01DX009 (ip), vehicle: saline
[3] = dose: 50.0 mg/kg/injection, schedule: Q01DX009 (ip), vehicle: saline
[4] = dose: 100.0 mg/kg/injection, schedule: Q01DX009 (ip), vehicle: saline
[5] = dose: 6.25 mg/kg/injection, schedule: Q01DX009 (ip), vehicle: Klucel (hydroxypropylcellulose) (HPC)
[6] = dose: 12.5 mg/kg/injection, schedule: Q01DX009 (ip), vehicle: Klucel (hydroxypropylcellulose) (HPC)
[7] = dose: 25.0 mg/kg/injection, schedule: Q01DX009 (ip), vehicle: Klucel (hydroxypropylcellulose) (HPC)
[8] = dose: 50.0 mg/kg/injection, schedule: Q01DX009 (ip), vehicle: Klucel (hydroxypropylcellulose) (HPC)
[9] = dose: 100.0 mg/kg/injection, schedule: Q01DX009 (ip), vehicle: Klucel (hydroxypropylcellulose) (HPC)
[10] = dose: 25.0 mg/kg/injection, schedule: Q01DX009 (ip), vehicle: saline with Tween-80
[11] = dose: 50.0 mg/kg/injection, schedule: Q01DX009 (ip), vehicle: saline with Tween-80
[12] = dose: 100.0 mg/kg/injection, schedule: Q01DX009 (ip), vehicle: saline with Tween-80
[13] = dose: 200.0 mg/kg/injection, schedule: Q01DX009 (ip), vehicle: saline with Tween-80
[14] = dose: 10.0 mg/kg/injection, schedule: Q01DX009 (ip), vehicle: saline with Tween-80
[15] = dose: 20.0 mg/kg/injection, schedule: Q01DX009 (ip), vehicle: saline with Tween-80
[16] = dose: 10.0 mg/kg/injection, schedule: Q01DX009 (ip), vehicle: saline
[17] = dose: 12.5 mg/kg/injection, schedule: Q01DX009 (ip), vehicle: saline with Tween-80
[18] = dose: 6.25 mg/kg/injection, schedule: Q01DX009 (ip), vehicle: saline with Tween-80

Measured: T/C

C[C@]12CC[C@H]3[C@@H](CC[C@]4(O)C[C@@H](O)CC[C@]34C=O)[C@@]1(O)CC[C@@H]2C1=CC(=O)OC1
inactive: [1] 96 % of control | [2] 108 % of control | [3] 108 % of control | [4] 100 % of control

COc1ccc2[nH]c3c(c2c1)CCNC3CC(C)CCC=C(C)C (stereo unspecified)
inactive: [5] 116 % of control | [6] 98 % of control | [7] 102 % of control | [8] 95 % of control | [9] 107 % of control

CC(=O)OCC1OC(OC(C)=O)C(NC(=O)N(CCCl)N=O)C(OC(C)=O)C1OC(C)=O (stereo unspecified)
inactive: dose: 0.75 mg/kg/injection, schedule: Q01DX009 (ip), vehicle: Klucel (hydroxypropylcellulose) (HPC) 105 % of control | dose: 1.5 mg/kg/injection, schedule: Q01DX009 (ip), vehicle: Klucel (hydroxypropylcellulose) (HPC) 105 % of control | dose: 3.0 mg/kg/injection, schedule: Q01DX009 (ip), vehicle: Klucel (hydroxypropylcellulose) (HPC) 110 % of control | dose: 6.0 mg/kg/injection, schedule: Q01DX009 (ip), vehicle: Klucel (hydroxypropylcellulose) (HPC) 110 % of control

COc1cc2ccnc(/C=N\NC(N)=S)c2cc1OC
inactive: [10] 101 % of control | [11] 97 % of control | [12] 92 % of control | [13] 103 % of control

Nc1nc([Se])c2ncn(C3OC(CO)C(O)C3O)c2n1 (stereo unspecified)
inactive: dose: 2.0 mg/kg/injection, schedule: Q01DX009 (ip), vehicle: saline 96 % of control | dose: 4.0 mg/kg/injection, schedule: Q01DX009 (ip), vehicle: saline 99 % of control | dose: 8.0 mg/kg/injection, schedule: Q01DX009 (ip), vehicle: saline 118 % of control

O=c1[nH]c(=O)n([C@H]2CCCO2)cc1F
inactive: [7] 106 % of control | [8] 104 % of control | [9] 100 % of control

S=c1nc[nH]c2nc[nH]c12
inactive: dose: 7.5 mg/kg/injection, schedule: Q01DX009 (ip), vehicle: Klucel (hydroxypropylcellulose) (HPC) 97 % of control | dose: 15.0 mg/kg/injection, schedule: Q01DX005 (ip), vehicle: Klucel (hydroxypropylcellulose) (HPC) 98 % of control | dose: 15.0 mg/kg/injection, schedule: Q01DX009 (ip), vehicle: Klucel (hydroxypropylcellulose) (HPC) 113 % of control and 87 % of control | dose: 30.0 mg/kg/injection, schedule: Q01DX005 (ip), vehicle: Klucel (hydroxypropylcellulose) (HPC) 122 % of control | dose: 30.0 mg/kg/injection, schedule: Q01DX009 (ip), vehicle: Klucel (hydroxypropylcellulose) (HPC) 92 % of control and 108 % of control | dose: 60.0 mg/kg/injection, schedule: Q01DX005 (ip), vehicle: Klucel (hydroxypropylcellulose) (HPC) 93 % of control | dose: 120.0 mg/kg/injection, schedule: Q01DX005 (ip), vehicle: Klucel (hydroxypropylcellulose) (HPC) 103 % of control | dose: 240.0 mg/kg/injection, schedule: Q01DX005 (ip), vehicle: Klucel (hydroxypropylcellulose) (HPC) 95 % of control

Cc1c2ccncc2c(C)c2c1[nH]c1ccccc12
inactive: [5] 111 % of control | [6] 93 % of control | [7] 105 % of control

O=C(O)C(CSC(c1ccccc1)(c1ccccc1)c1ccccc1)N=Cc1cccs1 (stereo unspecified)
inactive: [1] 107 % of control | [2] 102 % of control | [3] 101 % of control

N=C(N)c1ccc(/C=C/c2ccc(C(=N)N)cc2O)cc1
inactive: dose: 3.12 mg/kg/injection, schedule: Q01DX009 (ip), vehicle: water 96 % of control | dose: 6.25 mg/kg/injection, schedule: Q01DX009 (ip), vehicle: water 101 % of control | dose: 12.5 mg/kg/injection, schedule: Q01DX009 (ip), vehicle: water 101 % of control | dose: 25.0 mg/kg/injection, schedule: Q01DX009 (ip), vehicle: water 111 % of control | dose: 50.0 mg/kg/injection, schedule: Q01DX009 (ip), vehicle: water 115 % of control

CN(C)CC(=O)c1ccc(O)c(O)c1
inactive: [4] 99 % of control | dose: 200.0 mg/kg/injection, schedule: Q01DX009 (ip), vehicle: saline 91 % of control | dose: 400.0 mg/kg/injection, schedule: Q01DX009 (ip), vehicle: saline 90 % of control

COC1CC(CC2CCC(C)C(C(C)C(=O)O)O2)OC2(OC(C)(C3CCC(C)(C4OC(C5OC(O)(CO)C(C)CC5C)CC4C)O3)CC2C)C1C (stereo unspecified)
inactive: dose: 0.31 mg/kg/injection, schedule: Q01DX009 (ip), vehicle: Klucel (hydroxypropylcellulose) (HPC) 99 % of control | dose: 0.63 mg/kg/injection, schedule: Q01DX009 (ip), vehicle: Klucel (hydroxypropylcellulose) (HPC) 94 % of control | dose: 1.25 mg/kg/injection, schedule: Q01DX009 (ip), vehicle: Klucel (hydroxypropylcellulose) (HPC) 100 % of control | dose: 5.0 mg/kg/injection, schedule: Q01DX009 (ip), vehicle: Klucel (hydroxypropylcellulose) (HPC) 96 % of control

CC(C)NCC(O)COc1cccc2ccccc12 (stereo unspecified)
inactive: dose: 8.0 mg/kg/injection, schedule: Q01DX009 (ip), vehicle: Klucel (hydroxypropylcellulose) (HPC) 90 % of control | dose: 16.0 mg/kg/injection, schedule: Q01DX009 (ip), vehicle: Klucel (hydroxypropylcellulose) (HPC) 96 % of control | dose: 32.0 mg/kg/injection, schedule: Q01DX009 (ip), vehicle: Klucel (hydroxypropylcellulose) (HPC) 92 % of control | dose: 64.0 mg/kg/injection, schedule: Q01DX009 (ip), vehicle: Klucel (hydroxypropylcellulose) (HPC) 100 % of control

CCc1c(CC(=O)O)c2cc(C)ccc2n1Cc1ccc(Cl)cc1
inactive: dose: 3.12 mg/kg/injection, schedule: Q01DX009 (ip), vehicle: Klucel (hydroxypropylcellulose) (HPC) 110 % of control | dose: 3.13 mg/kg/injection, schedule: Q01DX009 (ip), vehicle: Klucel (hydroxypropylcellulose) (HPC) 119 % of control | [5] 105 % of control and 108 % of control | [6] 100 % of control and 117 % of control | [7] 91 % of control and 99 % of control | [8] 95 % of control and 119 % of control | [9] 112 % of control and 88 % of control

CC1CCC2(OC1)OC1CC3C4CCC5CC(O)CCC5(C)C4CCC3(C)C1C2C (stereo unspecified)
inactive: dose: 20.0 mg/kg/injection, schedule: Q01DX009 (ip), vehicle: Klucel (hydroxypropylcellulose) (HPC) 91 % of control

O=C1C=CC(=Nc2ccc3c(c2)C(Br)c2ccccc2-3)O1 (stereo unspecified)
inactive: dose: 5.0 mg/kg/injection, schedule: Q01DX009 (ip), vehicle: saline with Tween-80 115 % of control | [14] 111 % of control | [15] 112 % of control

NC(=O)c1ncn(C2OC(CO)C(O)C2O)n1 (stereo unspecified)
inactive: [16] 110 % of control | dose: 20.0 mg/kg/injection, schedule: Q01DX009 (ip), vehicle: saline 110 % of control | dose: 40.0 mg/kg/injection, schedule: Q01DX009 (ip), vehicle: saline 101 % of control | dose: 80.0 mg/kg/injection, schedule: Q01DX009 (ip), vehicle: saline 97 % of control | dose: 160.0 mg/kg/injection, schedule: Q01DX009 (ip), vehicle: saline 106 % of control

CCO/C=C1\SC(=S)N(c2ccccc2C)C1=O
inactive: [17] 96 % of control | [10] 94 % of control | [11] 100 % of control | [12] 106 % of control | [13] 99 % of control

COc1nc(=O)n(C2C=CC(=O)O2)cc1F (stereo unspecified)
inactive: dose: 6.25 mg/kg/injection, schedule: Q01DX009 (ip), vehicle: saline 97 % of control | [1] 102 % of control | [2] 96 % of control | [3] 102 % of control | [4] 97 % of control

CC1(CO)C(O)CCC2(C)C1CCC1CC3CC12CCC3(O)CO (stereo unspecified)
inactive: [18] 87 % of control | [17] 97 % of control | [10] 110 % of control | [13] 106 % of control

Cc1ccc2c(c1)N=C(Nc1ccccc1)N=S2(C)=O (stereo unspecified)
inactive: [18] 102 % of control | [17] 102 % of control | [10] 111 % of control | [11] 112 % of control | [12] 115 % of control | [13] 116 % of control

Cc1cc(O)c(C(C)C)cc1S(=O)(=O)O (tested in a mixture with another compound)
inactive: [9] 90 % of control | dose: 200.0 mg/kg/injection, schedule: Q01DX009 (ip), vehicle: Klucel (hydroxypropylcellulose) (HPC) 102 % of control

NC1(C(=O)O)CCCc2ccc(N(CCCl)CCCl)cc21 (stereo unspecified)
inactive: dose: 2.5 mg/kg/injection, schedule: Q01DX009 (ip), vehicle: saline 99 % of control | dose: 5.0 mg/kg/injection, schedule: Q01DX009 (ip), vehicle: saline 98 % of control | [14] 118 % of control | [16] 109 % of control | [15] 108 % of control
